Laboratory results from patent publication US8071625B2, “Certain chemical entities, compositions, and methods” (Cytokinetics, Inc., priority 2006, dated 2011).

Molecular target: T1, crosslinked smooth muscle actomyosin (chicken gizzard smooth muscle myosin subfragment-1 crosslinked to cardiac or skeletal actin) (Gallus gallus, UniProt P10587)
T1 construct: chicken gizzard smooth muscle myosin subfragment-1; from tissue; host or cells: chicken gizzard
Test: Lead optimization pyruvate kinase/horseradish peroxidase/pyruvate oxidase-coupled ATPase assay (compound dose response)
Type: biochemical
Details: read-out: IC50 Arithmetic Mean
Summary of the method: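 The ATPase used chicken gizzard smooth muscle myosin S1 chemically crosslinked to cardiac or skeletal actin, titrated to a set hydrolysis rate. It was coupled via pyruvate kinase/pyruvate oxidase/HRP in 12 mM K-PIPES pH 7.00 (22 °C) with 0.15 mM ATP, 2 mM MgCl2, 100 mM KCl and 0.1 mM Amplex Red. Fluorescence was read at ex 480/em 615 nm, and IC50 came from a 4-parameter fit.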

Structure (SMILES) | IC50 [nM]
CCc1ccc(NC(=O)OCC2(C(=O)NCc3ccccc3Cl)CCN(C(=O)[C@H](CO)NC(=O)OC(C)(C)C)CC2)cc1 [N-[(1S)-2-(4-{N-[(2-chlorophenyl)methyl]carbamoyl}-4-{[N-(4-ethylphenyl)carbamoyloxy]methyl}piperidyl)-1-(hydroxymethyl)-2-oxoethyl](tert-butoxy)carboxamide] | 416
CCc1ccc(NC(=O)OCC2(C(=O)NCc3ccccc3Cl)CCN(C(=O)[C@H](C)NC(=O)OC(C)(C)C)CC2)cc1 [N-[(1S)-2-(4-{N-[(2-chlorophenyl)methyl]carbamoyl}-4-{[N-(4-ethylphenyl)carbamoyloxy]methyl}piperidyl)-1-methyl-2-oxoethyl](tert-butoxy)carboxamide] | 1510
CCc1ccc(NC(=O)OCC2(C(=O)NCc3ccccc3Cl)CCN(C(=O)C3CCCCC3)CC2)cc1 [N-[(2-chlorophenyl)methyl](1-(cyclohexylcarbonyl)-4-{[N-(4-ethylphenyl)carbamoyloxy]methyl}(4-piperidyl))carboxamide] | 2770
CCc1ccc(NC(=O)OCC2(C(=O)NCc3ccccc3Cl)CCN(C(=O)C3CC3)CC2)cc1 [N-[(2-chlorophenyl)methyl](1-(cyclopropylcarbonyl)-4-{[N-(4-ethylphenyl)carbamoyloxy]methyl}(4-piperidyl))carboxamide] | 641
CCc1ccc(NC(=O)OCC2(C(=O)NCc3ccccc3Cl)CCN(CC)CC2)cc1 [N-[(2-chlorophenyl)methyl](1-ethyl-4-{[N-(4-ethylphenyl)carbamoyloxy]methyl}(4-piperidyl))carboxamide] | 6280
CCc1ccc(NC(=O)OCC2(C(=O)NCc3ccccc3Cl)CC(O)C(O)C2)cc1 (stereo not shown) [N-[(2-chlorophenyl)methyl](1-{[N-(4-ethylphenyl)carbamoyloxy]methyl}-3,4-dihydroxycyclopentyl)carboxamide] | 5510
CCc1ccc(NC(=O)OCC2(C(=O)NCc3ccccc3Cl)CC=CC2)cc1 [N-[(2-chlorophenyl)methyl](1-{[N-(4-ethylphenyl)carbamoyloxy]methyl}cyclopent-3-enyl)carboxamide] | 1360
CCc1ccc(NC(=O)OCC2(C(=O)NCc3ccccc3Cl)CCCN(C(=O)CO)C2)cc1 (stereo not shown) [N-[(2-chlorophenyl)methyl](3-{[N-(4-ethylphenyl)carbamoyloxy]methyl}-1-(2-hydroxyacetyl)(3-piperidyl))carboxamide] | 399
N#Cc1ccccc1NC(=O)OCC1(C(=O)NCc2ccccc2Cl)CCOCC1 [N-[(2-chlorophenyl)methyl](4-{[N-(2-cyanophenyl)carbamoyloxy]methyl}(2H-3,4,5,6-tetrahydropyran-4-yl))carboxamide] | 17000
Cc1ccc(NC(=O)OCC2(C(=O)NCc3ccccc3Cl)CCOCC2)cc1F [N-[(2-chlorophenyl)methyl](4-{[N-(3-fluoro-4-methylphenyl)carbamoyloxy]methyl}(2H-3,4,5,6-tetrahydropyran-4-yl))carboxamide] | 2210
COc1cccc(NC(=O)OCC2(C(=O)NCc3ccccc3Cl)CCOCC2)c1 [N-[(2-chlorophenyl)methyl](4-{[N-(3-methoxyphenyl)carbamoyloxy]methyl}(2H-3,4,5,6-tetrahydropyran-4-yl))carboxamide] | 19000
CCc1ccc(N(C)C(=O)OCC2(C(=O)NCc3ccccc3Cl)CCOCC2)cc1 [N-[(2-chlorophenyl)methyl](4-{[N-(4-ethylphenyl)-N-methylcarbamoyloxy]methyl}(2H-3,4,5,6-tetrahydropyran-4-yl))carboxamide] | 7630
CCc1ccc(NC(=O)OCC2(C(=O)NCc3ccccc3Cl)CCOCC2)cc1 [N-[(2-chlorophenyl)methyl](4-{[N-(4-ethylphenyl)carbamoyloxy]methyl}(2H-3,4,5,6-tetrahydropyran-4-yl))carboxamide] | 197
CCc1ccc(NC(=O)OCC2(C(=O)NCc3ccccc3Cl)CCNCC2)cc1 [N-[(2-chlorophenyl)methyl](4-{[N-(4-ethylphenyl)carbamoyloxy]methyl}(4-piperidyl))carboxamide] | 1660
CCc1ccc(NC(=O)OCC2(C(=O)NCc3ccccc3Cl)CCN(C(=O)CO)CC2)cc1 [N-[(2-chlorophenyl)methyl](4-{[N-(4-ethylphenyl)carbamoyloxy]methyl}-1-(2-hydroxyacetyl)(4-piperidyl))carboxamide] | 173
CCc1ccc(NC(=O)OCC2(C(=O)NCc3ccccc3Cl)CCN(CCO)CC2)cc1 [N-[(2-chlorophenyl)methyl](4-{[N-(4-ethylphenyl)carbamoyloxy]methyl}-1-(2-hydroxyethyl)(4-piperidyl))carboxamide] | 4040
CCc1ccc(NC(=O)OCC2(C(=O)NCc3ccccc3Cl)CCN(C(=O)COC)CC2)cc1 [N-[(2-chlorophenyl)methyl](4-{[N-(4-ethylphenyl)carbamoyloxy]methyl}-1-(2-methoxyacetyl)(4-piperidyl))carboxamide] | 486

Structure (SMILES) | IC50 [nM]
CCc1ccc(NC(=O)OCC2(C(=O)NCc3ccccc3Cl)CCN(C(=O)c3ccccn3)CC2)cc1 [N-[(2-chlorophenyl)methyl](4-{[N-(4-ethylphenyl)carbamoyloxy]methyl}-1-(2-pyridylcarbonyl)(4-piperidyl))carboxamide] | 757
CCc1ccc(NC(=O)OCC2(C(=O)NCc3ccccc3Cl)CCN(C(=O)CCOC)CC2)cc1 [N-[(2-chlorophenyl)methyl](4-{[N-(4-ethylphenyl)carbamoyloxy]methyl}-1-(3-methoxypropanoyl)(4-piperidyl))carboxamide] | 606
CCc1ccc(NC(=O)OCC2(C(=O)NCc3ccccc3Cl)CCN(C(=O)c3cccnc3)CC2)cc1 [N-[(2-chlorophenyl)methyl](4-{[N-(4-ethylphenyl)carbamoyloxy]methyl}-1-(3-pyridylcarbonyl)(4-piperidyl))carboxamide] | 695
CCc1ccc(NC(=O)OCC2(C(=O)NCc3ccccc3Cl)CCN(C(=O)CCCO)CC2)cc1 [N-[(2-chlorophenyl)methyl](4-{[N-(4-ethylphenyl)carbamoyloxy]methyl}-1-(4-hydroxybutanoyl)(4-piperidyl))carboxamide] | 492
CCc1ccc(NC(=O)OCC2(C(=O)NCc3ccccc3Cl)CCN(C(=O)C3CCNCC3)CC2)cc1 [N-[(2-chlorophenyl)methyl](4-{[N-(4-ethylphenyl)carbamoyloxy]methyl}-1-(4-piperidylcarbonyl)(4-piperidyl))carboxamide] | 808
CCc1ccc(NC(=O)OCC2(C(=O)NCc3ccccc3Cl)CCN(C(=O)NC)CC2)cc1 [N-[(2-chlorophenyl)methyl](4-{[N-(4-ethylphenyl)carbamoyloxy]methyl}-1-(N-methylcarbamoyl)(4-piperidyl))carboxamide] | 302
CCc1ccc(NC(=O)OCC2(C(=O)NCc3ccccc3Cl)CCN(C(=O)c3ncc[nH]3)CC2)cc1 [N-[(2-chlorophenyl)methyl](4-{[N-(4-ethylphenyl)carbamoyloxy]methyl}-1-(imidazol-2-ylcarbonyl)(4-piperidyl))carboxamide] | 394
CCc1ccc(NC(=O)OCC2(C(=O)NCc3ccccc3Cl)CCN(S(C)(=O)=O)CC2)cc1 [N-[(2-chlorophenyl)methyl](4-{[N-(4-ethylphenyl)carbamoyloxy]methyl}-1-(methylsulfonyl)(4-piperidyl))carboxamide] | 496
CCc1ccc(NC(=O)OCC2(C(=O)NCc3ccccc3Cl)CCN(C(=O)C3COCCN3)CC2)cc1 (stereo not shown) [N-[(2-chlorophenyl)methyl](4-{[N-(4-ethylphenyl)carbamoyloxy]methyl}-1-(morpholin-3-ylcarbonyl)(4-piperidyl))carboxamide] | 515
CCc1ccc(NC(=O)OCC2(C(=O)NCc3ccccc3Cl)CCN(C(=O)c3ccccc3)CC2)cc1 [N-[(2-chlorophenyl)methyl](4-{[N-(4-ethylphenyl)carbamoyloxy]methyl}-1-(phenylcarbonyl)(4-piperidyl))carboxamide] | 412
CCc1ccc(NC(=O)OCC2(C(=O)NCc3ccccc3Cl)CCN(C(=O)CNC)CC2)cc1 [N-[(2-chlorophenyl)methyl](4-{[N-(4-ethylphenyl)carbamoyloxy]methyl}-1-[2-(methylamino)acetyl](4-piperidyl))carboxamide] | 213
CCc1ccc(NC(=O)OCC2(C(=O)NCc3ccccc3Cl)CCN(C(=O)C(C)NC)CC2)cc1 (stereo not shown) [N-[(2-chlorophenyl)methyl](4-{[N-(4-ethylphenyl)carbamoyloxy]methyl}-1-[2-(methylamino)propanoyl](4-piperidyl))carboxamide] | 1780
CCc1ccc(NC(=O)OCC2(C(=O)NCc3ccccc3Cl)CCN(C(=O)C(C)(CO)CO)CC2)cc1 [N-[(2-chlorophenyl)methyl](4-{[N-(4-ethylphenyl)carbamoyloxy]methyl}-1-[3-hydroxy-2-(hydroxymethyl)-2-methylpropanoyl](4-piperidyl))carboxamide] | 275
CCc1ccc(NC(=O)OCC2(C(=O)NCc3ccccc3Cl)CCN(Cc3ccccc3)CC2)cc1 [N-[(2-chlorophenyl)methyl](4-{[N-(4-ethylphenyl)carbamoyloxy]methyl}-1-benzyl(4-piperidyl))carboxamide] | 14400
CCc1ccc(NC(=O)OCC2(C(=O)NCc3ccccc3Cl)CCN(C)CC2)cc1 [N-[(2-chlorophenyl)methyl](4-{[N-(4-ethylphenyl)carbamoyloxy]methyl}-1-methyl(4-piperidyl))carboxamide] | 4930
CCc1ccc(NC(=O)OCC2(C(=O)NCc3ccccc3Cl)CCN(C(=O)c3ccc(C(=O)c4ccccc4)cc3)CC2)cc1 [N-[(2-chlorophenyl)methyl](4-{[N-(4-ethylphenyl)carbamoyloxy]methyl}-1-{[4-(phenylcarbonyl)phenyl]carbonyl}(4-piperidyl))carboxamide] | 4950
Cc1ccc(NC(=O)OCC2(C(=O)NCc3ccccc3Cl)CCOCC2)cc1 [N-[(2-chlorophenyl)methyl](4-{[N-(4-methylphenyl)carbamoyloxy]methyl}(2H-3,4,5,6-tetrahydropyran-4-yl))carboxamide] | 697
